Measured values as given in patent publication US20140315809A1, “CALCIMIMETICS AND METHODS FOR THEIR USE” (KAI PHARMACEUTICALS INC., priority 2011, published 2014).

Experiments:
Format in all cases: in vivo, rat
[1] = test system: adenine-induced model of chronic renal failure in rats; assay: PTH suppression in adenine-induced chronic renal failure; settings: uremic rats, 0.3 or 1 mg/kg SC daily for 2 and 4 weeks
Description: (§1) The therapeutic efficacy Ac-c(C)rrarar-NH2, (SEQ ID NO:28) was assessed using an adenine-induced model of chronic renal failure in rats. The rats were obtained from Charles River Laboratories (Wilmington, Mass.). The rats were fed a low protein (2.5%), high phosphorus (0.92%) diet containing 0.75% adenine (Teklad Custom Diet). Animals were randomly assigned to receive daily subcutaneous doses of vehicle (10 mM succinic acid, 0.85% NaCl, 0.9% benzyl alcohol, pH 4.5) or Ac-c(C)rrarar-NH2 (SEQ ID NO:28) at 0.3 or 1 mg/kg (SC) for 4 weeks. A control group was fed the identical high phosphorus diet and tissues without adenine. Treatment was initiated at the start of diet. All experimental procedures with animals were performed according to IACUC guidelines. Statistical analysis was performed using one-way ANOVA with Bonferroni post test. All p-values are nominal.
Plasma PTH was measured using the Immunotopics BioActive Intact ELISA (Immutopics, San Clemente, Calif.). Prior to dosing with Ac-c(C)rrarar-NH2 (SEQ ID NO:28), all treatment groups had similar plasma PTH levels. The no-adenine-control animals maintained consistent plasma PTH levels over the 4 week study.

[2] = test system: adenine-induced model of chronic renal failure in rats; assay: Creatinine suppression in adenine-induced chronic renal failure; settings: 4 weeks
Description: as §1
Serum creatinine was measured using QuantiChrom™ kit (BioAssay Systems, Hayward, Calif.). Serum creatinine levels from vehicle-treated uremic animals were approximately 8-10 fold higher compared to the control group of non-uremic animals at the end of the 4 weeks. […] Uremic animals treated with Ac-c(C)rrarar-NH2 (SEQ ID NO:28) at a dose of 1 mg/kg Ac-c(C)rrarar-NH2 (SEQ ID NO:28) had approximately 50% lower serum creatinine levels compared with vehicle-treated controls.

[3] = test system: adenine-induced model of chronic renal failure in rats; assay: Serum phosphorus, calcium and calcium-phosphorus product in adenine-induced chronic renal failure; settings: uremic rats
Description: as §1
Phosphorus and calcium were determined using a Cobas c-501 analyzer.

[4] = test system: adenine-induced model of chronic renal failure in rats; assay: Parathyroid gland weight in adenine-induced chronic renal failure; settings: 0.3 or 1 mg/kg SC daily for 4 weeks
Description: as §1
The effects of Ac-c(C)rrarar-NH2 (SEQ ID NO:28) treatment on parathyroid gland enlargement was also determined using the adenine-induced rat model of chronic renal failure. After treatment with Ac-c(C)rrarar-NH2 (SEQ ID NO:28) at doses of 0.3 or 1 mg/kg for 4 weeks, the uremic rats were sacrificed and the parathyroid glands were removed, trimmed and weighed.

[5] = test system: adenine-induced model of chronic renal failure in rats; assay: Vascular calcification (Alizarin Red, von Kossa) in adenine-induced chronic renal failure; settings: uremic rats
Description: as §1
The effects of Ac-c(C)rrarar-NH2 (SEQ ID NO:28) treatment of vascular calcification was also determined using adenine-induced rat model of chronic renal failure. After treatment with Ac-c(C)rrarar-NH2 (SEQ ID NO:28) at doses of 0.3 or 1 mg/kg for 4 weeks, the uremic rats were sacrificed and aortic tissue was analyzed. Aortic tissue was processed and stained by Alizarin Red and von Kossa methods to visualize vascular mineralization. Using a scoring system from 0-5, identical sections of von Kossa-stained aorta from all animals were scored in a blinded fashion.

[6] = 0.3 and 1 mg/kg SC daily for 4 weeks
[7] = 0.3 or 1 mg/kg SC daily for 4 weeks

Ac-c(C)rrarar-NH2 was tested, and the “plasma PTH versus vehicle-treated animals” value [1] was “significantly lower”, the “serum creatinine levels versus vehicle-treated uremic rats” value ([2]; 0.3 and 1 mg/kg SC daily) was “significantly lower” and the “lower serum creatinine levels compared with vehicle-treated controls” value ([2]; uremic rats, 1 mg/kg SC daily) was “approximately 50%”. The “reduction in serum calcium-phosphorus product” value ([3]; 0.3 mg/kg SC daily for 4 weeks) was about 20%, the “reduction in serum calcium-phosphorus product” value ([3]; 1 mg/kg SC daily for 4 weeks) was about 40% and the “serum calcium compared to vehicle-treated rats” value [3, 6] was “significant dose-dependent reduction”. The serum phosphorus levels [3, 6] was “significant reduction”, the “parathyroid gland weight compared to non-uremic animals” value [4] was “not significantly different in weight” and the “parathyroid gland weight compared to vehicle group” value ([4]; uremic rats) was “significantly reduced in weight”. For the same substance, the “animals showing aortic mineralization” value ([5]; 0.3 mg/kg treatment group, 4 weeks) was “Only one animal”, the “aortic mineralization, Alizarin Red and Von Kossa staining” value [5, 7] was “little or no mineralization” and the “von Kossa staining of aorta” value [5, 7] was “no appreciable von Kossa staining”.
